# Source: patent US9914914B2, “Polymerase capable of producing non-DNA nucleotide polymers” (Medical Research Council, priority 2012, dated 2018)
# [HNA-N] = hexitol nucleic acid (N: the base)
# What was measured:
# [1] = molecular target: T1, CD30 (Homo sapiens, UniProt P28908); assay: Fluorescence polarisation affinity of txNA aptamers; assay type: binding
# T1 construct: selections were carried out against the extracellular domains of both CD30 and L1-CAM expressed as N-terminal Fc chimeras
# T1 sequence (P28908 19-385 limits assumed): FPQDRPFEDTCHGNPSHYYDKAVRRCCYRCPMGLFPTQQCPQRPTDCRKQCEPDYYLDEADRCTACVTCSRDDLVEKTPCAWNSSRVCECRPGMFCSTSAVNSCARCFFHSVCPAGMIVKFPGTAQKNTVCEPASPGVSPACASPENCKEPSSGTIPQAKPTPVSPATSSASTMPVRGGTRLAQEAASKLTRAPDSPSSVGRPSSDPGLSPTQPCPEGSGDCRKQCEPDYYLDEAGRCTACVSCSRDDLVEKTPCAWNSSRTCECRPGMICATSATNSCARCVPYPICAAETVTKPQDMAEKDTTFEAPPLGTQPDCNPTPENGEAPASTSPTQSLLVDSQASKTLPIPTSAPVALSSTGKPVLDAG
# Procedure: In this example, selections were carried out against the extracellular domains of both CD30 and L1-CAM expressed as N-terminal Fc chimeras. Briefly, for each round libraries were annealed in 1×HBSSTT (Hanks' Balanced Salt Solution with 5 mM each TRIS pH 7.4 and 8.3 and 0.05% Tween-20) for 5 min 85° C. and cooled to 4° C. at 0.1° C./sec, exposed to either protein AG or streptavidin-coated paramagnetic beads (see below), filtered to remove the beads and then added to recombinant protein in 1×HBSST. These mixtures were incubated at room temperature on a rotator to allow aptamers to bind to the recombinant proteins in solution and binders were recovered via protein AG or streptavidin-coated paramagnetic beds. Rounds 1, 2 and 5 were carried out using native protein and Protein AG Magnetic Beads (Pierce). All other rounds were carried out using protein biotinylated with NHS-LC-LC-biotin (Pierce) and recovered from the binding incubation using NanoLink Streptavidin Magnetic beads (SoluLink). The beads were washed in 1×HBSSTT for 2 h-16 h at room temperature using a Thermo KingFisher and aptamers eluted from the proteins bound to the beads using 30 mM NaOH. Negative selections were carried out against free Fc from round 5 onwards. […]
# Aptamers selected against a) CD30 and b) L1-CAM were tested in fluorescence polarisation (FP) and affinities calculated as above (and/or Pinheiro et al (2012)). […]
# [2] = test system: sTAR (HIV trans-activating response RNA motif); assay: HNA aptamer affinity by SPR, BLI and ELONA titration; assay type: binding; settings: read-out: dissociation constant (KD)
# Procedure: ELONA (Aptamer-ELISA) was carried out as described (56) with minor modifications. For screening and characterization, ssRNA-HNA chimeras were prepared as described above (13.) (using fitcRNAfd (Table S5)) and binding assayed by immunodetection of the FITC-tag on the bound aptamer. […] Bound antibody was detected using a colorimetric substrate as described above (see PAA, 5) […]
# For anti-TAR aptamers, 1000RU sTAR was captured (or, as a reference flow cell, 1000RU scrambledTAR-1) before blocking with excess free biotin. Anti-TAR aptamers were injected for 150 s at a series of concentrations (125 nM, 62.5 nM, 31.3 nM, 15.6 nM, 7.8 nM and 3.9 nM) and dissociation monitored for 600 s, in buffer R (20 mM NaOAc, 140 mM KOAc, 3 mM Mg(OAc)2, 0.1% (v/v) Tween20). […]
# To obtain optimal fits, SPR data was fitted to double-exponential model using KaleidaGraph (Synergy Software, Pennsylvania, USA) and Prism (GraphPad Software Inc., California, USA) (57). The rate constants of dissociation were measured by fitting dissociation data at time t (Rdissoc) using a double-exponential function: Rdissoc=Rolexp^−(k^off1^t)+Ro2exp^−(k^off2^t)+RI (1) where koff is the dissociation rate constant, Ro is maximum change in resonance for each phase, RI is the bulk resonance change. […]
Substance,binding to CD30 [1],Kd [2] [µM]
"CD30_13: txNA aptamer selected against CD30, SEQ ID NO:20 (TAGATGTGGTAGAAGTCGTCATTTGGCGAGAAAGCTCAGTCTCAGG; XNA aptamer, chemistry of this clone not given here)",bind CD30 tightly and with good affinity,–
"T5-S8-7: anti-TAR HNA aptamer, SEQ ID NO:16 (AGGTAGTGCTGTTCGTTCATCTCAAATCTAGTTCGCTATCCAGTTGGC; all [HNA-N], backbone and methylation of C not given here)",–,0.028 to 0.067
